Legend:
[1] = molecular target: T1, MEK1 (Recombinant Human Protein) (Homo sapiens, UniProt Q02750); assay: MEK1 kinase inhibition assay (Z'-LYTE Kinase Assay Kit-Ser/Thr 03 Peptide); format: biochemical; settings: 4 hours at 37° C, read-out: IC50 for inhibiting MEK kinase (MEK1)
T1 construct: purchased Invitrogen PV3093
Protocol: MEK1 kinase activity was tested in vitro by the following method.
MEK kinase used in the assay: MEK1 (Recombinant Human Protein, Invitrogen, Catalog No. PV3093).
Kit used in the assay: Z′-LYTE™ Kinase Assay Kit-Ser/Thr 03 Peptide (Invitrogen, Catalog No. PV3176).
The following in vitro assay was used to determine the activity of the compounds of the present invention for inhibiting the […] MEK kinase. The test compound was dissolved in dimethyl sulfoxide to the desired concentration. 1× Buffer A (Invitrogen, Catalog No. PV3189) was prepared, ATP was diluted with 1× Buffer A to obtain 400 μM ATP solution, appropriate amounts of Z′-LYTE™ Ser/Thr 03 Peptide (Invitrogen, Catalog No. PV3200), MEK kinase (MEK1) Enzymes and 1× Buffer A were mixed, and appropriate amounts of Z′-LYTE™ Ser/Thr 03 phosphoPeptide substrate (Invitrogen, Catalog No. PV3215) and 1× Buffer A were formulated into a mixture to be tested. The 4% DMSO solution of the test compound was prepared from 1× buffer and DMSO solution of the test compound. 2.5 μL DMSO solution of the test compound was added to a reaction well, and then 1× Buffer A, 2.5 μL of 400 μM ATP solution, 5 μL of enzyme and substrate mixture were added to become a 10 μL of reaction system. The reaction system was incubated for 4 hours at 37° C., and a mixture was prepared according to Reagent A:Buffer B=1:1024. 5 μL of a mixture of Reagent A (Invitrogen, Catalog No. PV3295) and Buffer B (Invitrogen, Catalog No. P3127) was added to a reaction well, the reaction system was incubated for 60 minutes at 25° C. The fluorescence was read by a NovoStar ELISA with excitation wavelength: 400 nm, and emission wavelength: 445 nm and 520 nm.
The activity of the compounds of the present invention: The above assay was used to determine the biochemical activity of the compounds of the present invention for inhibiting MEK kinase (MEK1).

Colo205 cell = assay: Proliferation inhibition on Colo205 (CCK8); format: cell-based; settings: Homo sapiens, COLO 205, Colo205, 72 hours
From the text: Cell line used in the assay: Colo205 (Cell Bank of the Chinese Academy of Sciences, Catalog No. TCHu102).
The following in vitro cell assay is to determine the activity of the compounds of the present invention for inhibiting the proliferation of human colon cancer cell, and the activity is expressed as IC50. General programs of this kind of assay were as follows: First, the cell line to be tested (purchased from Cell Bank of the Chinese Academy of Sciences) was inoculated in a 96-well culture plate with a suitable cell concentration of 4000 cells/mL medium, and was cultured in a carbon dioxide incubator at 37° C., then grown overnight. The medium was replaced by new medium added with a series of concentrations (10000 nM, 1000 nM, 100 nM, 10 nM, 1 nM, 0.1 nM) of the test compound solutions. The plates were placed back in the incubator, and continuously cultured for 72 hours. After 72 hours, CCK8 (Cell Counting Kit-8, Catalog No.: CK04, purchased from colleagues chemical company) method was used to determine the proliferation inhibition activity of the test compounds. IC50 values were calculated from the inhibition data of the test compounds at a series of different concentrations.
The above assay was used to determine the biochemical activity of the compounds of the present invention.

T1 sequence (Q02750 whole entry): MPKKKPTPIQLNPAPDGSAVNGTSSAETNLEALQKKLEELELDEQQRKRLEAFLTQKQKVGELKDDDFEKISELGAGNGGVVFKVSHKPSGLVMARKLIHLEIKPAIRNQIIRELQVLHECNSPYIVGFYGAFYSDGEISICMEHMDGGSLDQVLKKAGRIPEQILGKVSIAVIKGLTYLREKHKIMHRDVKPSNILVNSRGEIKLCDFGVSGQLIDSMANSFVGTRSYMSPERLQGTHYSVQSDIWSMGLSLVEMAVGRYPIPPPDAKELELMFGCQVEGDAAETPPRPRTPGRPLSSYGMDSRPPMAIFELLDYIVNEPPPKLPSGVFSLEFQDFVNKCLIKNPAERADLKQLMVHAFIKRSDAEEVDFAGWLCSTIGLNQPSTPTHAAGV

IC50 [1] [nM]	IC50 (Colo205 cell) [nM]	Compound
6.2	4.2	Cc1c(Cl)cccc1Oc1cc(=O)n(C)c(Nc2ccc(I)cc2F)c1C(N)=O [Example 14, 4-(3-chloro-2-methylphenoxy)-2-((2-fluoro-4-iodophenyl)amino)-1-methyl-6-oxo-1,6-dihydropyridine-3-carboxamide]
5.8	0.8	Cc1cccc(Oc2cc(=O)n(C)c(Nc3ccc(I)cc3F)c2C(N)=O)c1F [Example 19, 4-(2-fluoro-3-methylphenoxy)-2-((2-fluoro-4-iodophenyl)amino)-1-methyl-6-oxo-1,6-dihydropyridine-3-carboxamide]
19	4.7	CCS(=O)(=O)Nc1cccc(Oc2cc(=O)n(C)c(Nc3ccc(I)cc3F)c2C(=O)NC)c1C [Example 2, N,1-dimethyl-4-(3-(ethylsulfonamido)-2-methylphenoxy)-2-((2-fluoro-4-iodophenyl)amino)-6-oxo-1,6-dihydropyridine-3-carboxamide]
7.9	1.4	Cc1cccc(Oc2cc(=O)n(C)c(Nc3ccc(I)cc3F)c2C(N)=O)c1C [Example 18, 4-(2,3-dimethylphenoxy)-2-((2-fluoro-4-iodophenyl)amino)-1-methyl-6-oxo-1,6-dihydropyridine-3-carboxamide]
8.2	10.2	Cc1ccc(Oc2cc(=O)n(C)c(Nc3ccc(I)cc3F)c2C(N)=O)c(Cl)c1 [Example 15, 4-(2-chloro-4-methylphenoxy)-2-((2-fluoro-4-iodophenyl)amino)-1-methyl-6-oxo-1,6-dihydropyridine-3-carboxamide]
7.3		Cc1ccncc1Oc1cc(=O)n(C)c(Nc2ccc(I)cc2F)c1C(N)=O [Example 33, 2-((2-fluoro-4-iodophenyl)amino)-1-methyl-4-((4-methylpyridin-3-yl)oxy)-6-oxo-1,6-dihydropyridine-3-carboxamide]
6.3	4.3	CNC(=O)c1cccc(Oc2cc(=O)n(C)c(Nc3ccc(I)cc3F)c2C(N)=O)c1C [Example 10, 4-(2-methyl-3-(methylcarbamoyl)phenoxy)-2-((2-fluoro-4-iodophenyl)amino)-1-methyl-6-oxo-1,6-dihydropyridine-3-carboxamide]
6.3	10.2	Cc1cccc(C)c1Oc1cc(=O)n(C)c(Nc2ccc(I)cc2F)c1C(N)=O [Example 21, 4-(2,6-dimethylphenoxy)-2-((2-fluoro-4-iodophenyl)amino)-1-methyl-6-oxo-1,6-dihydropyridine-3-carboxamide]
5.5	4.3	Cc1c(Oc2cc(=O)n(C)c(Nc3ccc(I)cc3F)c2C(N)=O)cccc1C(=O)NC1CC1 [Example 11, 4-(3-(cyclopropylcarbamoyl)-2-methylphenoxy)-2-((2-fluoro-4-iodophenyl)amino)-1-methyl-6-oxo-1,6-dihydropyridine-3-carboxamide]
2.9	1.7	Cc1ccc(Oc2cc(=O)n(C)c(Nc3ccc(I)cc3F)c2C(N)=O)c(C)c1 [Example 20, 4-(2,4-dimethylphenoxy)-2-((2-fluoro-4-iodophenyl)amino)-1-methyl-6-oxo-1,6-dihydropyridine-3-carboxamide]
4		CCS(=O)(=O)Nc1cccc(Oc2c(C(N)=O)c(Nc3ccc(I)cc3F)n(C)c(=O)c2Cl)c1C [Example 5, 4-(3-(ethylsulfonamido)-2-methylphenoxy)-2-((2-fluoro-4-iodophenyl)amino)-1-methyl-5-chloro-6-oxo-1,6-dihydropyridine-3-carboxamide]
4	3.1	Cc1c(O)cccc1Oc1cc(=O)n(C)c(Nc2ccc(I)cc2F)c1C(N)=O [Example 24, 4-(3-hydroxy-2-methylphenoxy)-2-((2-fluoro-4-iodophenyl)amino)-1-methyl-6-oxo-1,6-dihydropyridine-3-carboxamide]
6	0.3	Cc1c(Oc2cc(=O)n(C)c(Nc3ccc(I)cc3F)c2C(N)=O)cccc1O[C@H]1CCOC1 [Example 9, (S)-2-((2-fluoro-4-iodophenyl)amino)-1-methyl-4-(2-methyl-3-((tetrahydrofuran-3-yl)oxy)phenoxy)-6-oxo-1,6-dihydropyridine-3-carboxamide]
3.4		CCS(=O)(=O)Nc1cccc(Oc2c(C(N)=O)c(Nc3ccc(I)cc3F)n(C)c(=O)c2F)c1C [Example 6, 4-(3-(ethylsulfonamido)-2-methylphenoxy)-2-((2-fluoro-4-iodophenyl)amino)-1-methyl-5-fluoro-6-oxo-1,6-dihydropyridine-3-carboxamide]
8.4	2	Cc1ccc(Oc2cc(=O)n(C)c(Nc3ccc(I)cc3F)c2C(N)=O)c(F)c1 [Example 17, 4-(2-fluoro-4-methylphenoxy)-2-((2-fluoro-4-iodophenyl)amino)-1-methyl-6-oxo-1,6-dihydropyridine-3-carboxamide]
5.5	4	Cc1cc(Oc2cc(=O)n(C)c(Nc3ccc(I)cc3F)c2C(N)=O)ccn1 [Example 32, 2-((2-fluoro-4-iodophenyl)amino)-1-methyl-4-((2-methylpyridin-4-yl)oxy)-6-oxo-1,6-dihydropyridine-3-carboxamide]
5.5	0.4	Cc1c(NC(=O)C2CC2)cccc1Oc1cc(=O)n(C)c(Nc2ccc(I)cc2F)c1C(N)=O [Example 7, 4-(3-(cyclopropanecarboxamido)-2-methylphenoxy)-2-((2-fluoro-4-iodophenyl)amino)-1-methyl-6-oxo-1,6-dihydropyridine-3-carboxamide]
4.2	0.4	Cc1ccccc1Oc1cc(=O)n(C)c(Nc2ccc(I)cc2F)c1C(N)=O [Example 23, 4-(2-methylphenoxy)-2-((2-fluoro-4-iodophenyl)amino)-1-methyl-6-oxo-1,6-dihydropyridine-3-carboxamide]
5.5	2.9	CC(=O)c1cccc(Oc2cc(=O)n(C)c(Nc3ccc(I)cc3F)c2C(N)=O)c1C [Example 13, 4-(3-acetyl-2-methylphenoxy)-2-((2-fluoro-4-iodophenyl)amino)-1-methyl-6-oxo-1,6-dihydropyridine-3-carboxamide]
26		Cc1c(F)cccc1Oc1cc(=O)n(C)c(Nc2ccc(I)cc2F)c1C(=O)NC[C@H](O)CO [Example 28, (S)-N-(2,3-dihydroxypropyl)-4-(3-fluoro-2-methylphenoxy)-2-((2-fluoro-4-iodophenyl)amino)-1-methyl-6-oxo-1,6-dihydropyridine-3-carboxamide]
28.3		Cc1c(F)cccc1Oc1cc(=O)n(C)c(Nc2ccc(I)cc2F)c1C(=O)NC[C@@H](O)CO [Example 27, (R)-N-(2,3-dihydroxypropyl)-4-(3-fluoro-2-methylphenoxy)-2-((2-fluoro-4-iodophenyl)amino)-1-methyl-6-oxo-1,6-dihydropyridine-3-carboxamide]
3.9		Cc1c(F)cccc1Oc1c(C(N)=O)c(Nc2ccc(I)cc2F)n(C)c(=O)c1F [Example 26, 5-fluoro-4-(3-fluoro-2-methylphenoxy)-2-((2-fluoro-4-iodophenyl)amino)-1-methyl-6-oxo-1,6-dihydropyridine-3-carboxamide]
